Measured values from patent US11219214B2, “Benzosultams and analogues and their use as fungicides” (Bayer CropScience Aktiengesellschaft, priority 2016, dated 2022).
Like-named read-outs stand apart in the source and are kept apart here.

Experiments:
[1] = 0.1% aqueous formic acid and acetonitrile, gradient 10% to 95% acetonitrile
Description: In table 1a, the log P values were determined in accordance with EEC Directive 79/831 Annex V.A8 by HPLC (High Performance Liquid Chromatography) on a reversed-phase column (C 18), using the method described below:
Method C: temperature: 55° C.; mobile phases: 0.1% aqueous formic acid and acetonitrile; linear gradient from 10% acetonitrile to 95% acetonitrile.
If more than one Log P value is available within the same method, all the values are given and separated by “;”.

Leptnosphaeria nodorum = assay: Example C: Leptnosphaeria nodorum in vitro cell test; assay type: cell-based; settings: 144 h, liquid culture, 6 days incubation, inhibition of fungal growth, read-out: Efficacy; for inhibition of growth at 20 ppm: 20 ppm of active ingredient
Description: Example C: Leptnosphaeria nodorum In Vitro Cell Test • Solvent: dimethyl sulfoxide (DMSO) • Culture medium: 14.6 g anhydrous D-glucose (VWR), 7.1 g Mycological Peptone (Oxoid), 1.4 g granulated Yeast Extract (Merck), QSP 1 liter • Inoculum: spore suspension Active ingredients were solubilized in DMSO and the solution used to prepare the required range of concentrations. […] A spore suspension of L. nodorum was prepared and diluted to the desired spore density. Active ingredients were evaluated for their ability to inhibit spore germination and mycelium growth in liquid culture assay. The compounds were added in the desired concentration to the culture medium with spores. After 6 days incubation, fungi-toxicity of compounds was determined by spectrometric measurement of mycelium growth. Inhibition of fungal growth was determined by comparing the absorbance values in wells containing the active ingredients with the absorbance in control wells without fungicides.

Pyricularia oryzae = assay: microbe, parasite or virus in culture; assay type: cell-based; settings: 120 h, read-out: Efficacy, 20 ppm of active ingredient, liquid culture, 5 days incubation, inhibition of fungal growth
[2] = Method C: HPLC reversed-phase C 18, 55° C.

Q: Which chromatographic logP ([1]; Method C: 55° C.) does the source give for CC1Cc2ccccc2NS1(=O)=O (centres unmarked) [3-methyl-3,4-dihydro-1H-2,1-benzothiazine 2,2-dioxide] here?
A: 1.33

Q: Which results are given for COC1N(c2cnc3c(F)cccc3c2)c2ccccc2C1(C)C (centres unmarked) [CMP1, 8-fluoro-3-(2-methoxy-3,3-dimethyl-2,3-dihydro-1H-indol-1-yl)quinoline, reference compound]?
A: inhibition of growth at 4 ppm (Leptnosphaeria nodorum): 0%; inhibition of growth at 20 ppm (Leptnosphaeria nodorum): 5%; inhibition of growth at 20 ppm (Pyricularia oryzae): 7%

Q: With CC1(C)c2ccccc2N(c2cnc3c(F)cccc3c2)S1(=O)=O [I.015, 3-(3,3-dimethyl-2,2-dioxido-2,1-benzothiazol-1(3H)-yl)-8-fluoroquinoline] as the compound, how does the inhibition of growth at 4 ppm (Leptnosphaeria nodorum) read?
A: ≥ 80%

Q: And the inhibition of growth at 20 ppm (Leptnosphaeria nodorum)?
A: 90 to 100%

Q: And the inhibition of growth at 20 ppm (Pyricularia oryzae)?
A: 90 to 100%

Q: And the chromatographic logP ([1]; Method A: 40° C.)?
A: 3.12

Q: Which results are given for O=S1(=O)Cc2ccccc2N1c1cnc2c(F)cccc2c1 [I.018, 3-(2,2-dioxido-2,1-benzothiazol-1(3H)-yl)-8-fluoroquinoline]?
A: inhibition of growth at 20 ppm (Leptnosphaeria nodorum): 90 to 100%; chromatographic logP ([1]; Method A: 40° C.): 2.52

Q: With CC1(C)C(=O)c2ccccc2N(c2cnc3ccccc3c2)S1(=O)=O [I.156, 3,3-dimethyl-1-(quinolin-3-yl)-1H-2,1-benzothiazin-4(3H)-one 2,2-dioxide] as the compound, how does the inhibition of growth at 20 ppm (Leptnosphaeria nodorum) read?
A: 70 to 79%

Q: And the inhibition of growth at 20 ppm (Pyricularia oryzae)?
A: 90 to 100%

Q: And the chromatographic logP ([1]; Method C: 55° C.)?
A: 2.93

Q: Which chromatographic logP ([1]; Method C: 55° C.) does the source give for CC1Cc2ccccc2N(c2cnc3ccccc3c2)S1(=O)=O (centres unmarked) [I.158, 3-methyl-1-(quinolin-3-yl)-3,4-dihydro-1H-2,1-benzothiazine 2,2-dioxide] here?
A: 2.58

Q: With O=C1CS(=O)(=O)N(c2cnc3ccccc3c2)c2ccccc21 [I.159, 1-(quinolin-3-yl)-1H-2,1-benzothiazin-4(3H)-one 2,2-dioxide] as the compound, how does the chromatographic logP ([1]; Method C: 55° C.) read?
A: 2.28

Q: Which inhibition of growth at 20 ppm (Leptnosphaeria nodorum) does the source give for CC1Cc2ccccc2N(c2cc3ccccc3[n+]([O-])c2)S1(=O)=O (centres unmarked) [I.162, 3-methyl-1-(1-oxidoquinolin-3-yl)-3,4-dihydro-1H-2,1-benzothiazine 2,2-dioxide] here?
A: 90 to 100%

Q: What about the inhibition of growth at 20 ppm (Pyricularia oryzae) of the same compound?
A: 90 to 100%

Q: What about the chromatographic logP ([1]; Method C: 55° C.) of the same compound?
A: 1.81

Q: With CC1(C)C(F)(F)c2ccccc2N(c2cnc3ccccc3c2)S1(=O)=O [I.163, 4,4-difluoro-3,3-dimethyl-1-(quinolin-3-yl)-3,4-dihydro-1H-2,1-benzothiazine 2,2-dioxide] as the compound, how does the inhibition of growth at 20 ppm (Leptnosphaeria nodorum) read?
A: 90 to 100%

Q: And the inhibition of growth at 20 ppm (Pyricularia oryzae)?
A: 80 to 89%

Q: What about the chromatographic logP ([1]; Method C: 55° C.) of the same compound?
A: 3.25

Q: For CC1(C)CS(=O)(=O)N(c2cnc3ccccc3c2)c2ccccc21 [I.166, 4,4-dimethyl-1-(quinolin-3-yl)-3,4-dihydro-1H-2,1-benzothiazine 2,2-dioxide], which inhibition of growth at 20 ppm (Pyricularia oryzae) is on record?
A: 90 to 100%

Q: And the chromatographic logP ([1]; Method C: 55° C.)?
A: 2.88

Q: Which results are given for CC1(C)c2ccccc2N(c2cnc3ccccc3c2)S(=O)(=O)C1(C)C [I.172, 3,3,4,4-tetramethyl-1-(quinolin-3-yl)-3,4-dihydro-1H-2,1-benzothiazine 2,2-dioxide]?
A: inhibition of growth at 20 ppm (Leptnosphaeria nodorum): 90 to 100%; inhibition of growth at 20 ppm (Pyricularia oryzae): 90 to 100%; chromatographic logP ([1]; Method C: 55° C.): 3.85

Q: For CC1C(C)(C)c2ccccc2N(c2cnc3ccccc3c2)S1(=O)=O (centres unmarked) [I.173, 3,4,4-trimethyl-1-(quinolin-3-yl)-3,4-dihydro-1H-2,1-benzothiazine 2,2-dioxide], which inhibition of growth at 20 ppm (Leptnosphaeria nodorum) is on record?
A: 90 to 100%

Q: What about the inhibition of growth at 20 ppm (Pyricularia oryzae) of the same compound?
A: 90 to 100%

Q: And the chromatographic logP ([1]; Method C: 55° C.)?
A: 3.53

Q: For CC1(O)c2ccccc2N(c2cnc3ccccc3c2)S(=O)(=O)C1(C)C (centres unmarked) [I.213, 3,3,4-trimethyl-1-(quinolin-3-yl)-3,4-dihydro-1H-2,1-benzothiazin-4-ol 2,2-dioxide], which inhibition of growth at 20 ppm (Leptnosphaeria nodorum) is on record?
A: 80 to 89%

Q: What about the inhibition of growth at 20 ppm (Pyricularia oryzae) of the same compound?
A: 80 to 89%

Q: And the chromatographic logP ([1]; Method C: 55° C.)?
A: 2.46

Q: And the chromatographic logP [1, 2]?
A: 2.46

Q: With C=C1c2ccccc2N(c2cnc3c(F)c(F)ccc3c2)S(=O)(=O)C1(C)C [I.219, 1-(7,8-difluoroquinolin-3-yl)-3,3-dimethyl-4-methylene-3,4-dihydro-1H-2,1-benzothiazine 2,2-dioxide] as the compound, how does the inhibition of growth at 20 ppm (Leptnosphaeria nodorum) read?
A: 90 to 100%

Q: What about the inhibition of growth at 20 ppm (Pyricularia oryzae) of the same compound?
A: 90 to 100%

Q: And the chromatographic logP ([1]; Method C: 55° C.)?
A: 3.34

Q: What about the chromatographic logP [1, 2] of the same compound?
A: 3.34

Q: For CC1(F)c2ccccc2N(c2cnc3c(F)c(F)ccc3c2)S(=O)(=O)C1(C)C (centres unmarked) [I.225, 1-(7,8-difluoroquinolin-3-yl)-4-fluoro-3,3,4-trimethyl-3,4-dihydro-1H-2,1-benzothiazine 2,2-dioxide], which inhibition of growth at 20 ppm (Leptnosphaeria nodorum) is on record?
A: 90 to 100%

Q: What about the inhibition of growth at 20 ppm (Pyricularia oryzae) of the same compound?
A: 90 to 100%

Q: And the chromatographic logP ([1]; Method C: 55° C.)?
A: 3.6

Q: And the chromatographic logP [1, 2]?
A: 3.6

Q: Which chromatographic logP ([1]; Method C: 55° C.) does the source give for O=C1c2ccccc2N(c2cnc3ccccc3c2)S(=O)(=O)C1(Cl)Cl [I.239, 3,3-dichloro-1-(quinolin-3-yl)-1H-2,1-benzothiazin-4(3H)-one 2,2-dioxide] here?
A: 3.49

Q: And the chromatographic logP [1, 2]?
A: 3.49

Q: Which inhibition of growth at 20 ppm (Pyricularia oryzae) does the source give for O=S1(=O)CC(=NOCc2ccccc2)c2ccccc2N1c1cnc2ccccc2c1 [I.241, N-(benzyloxy)-1-(quinolin-3-yl)-1H-2,1-benzothiazin-4(3H)-imine 2,2-dioxide] here?
A: 70 to 79%

Q: What about the chromatographic logP ([1]; Method C: 55° C.) of the same compound?
A: 3.94

Q: What about the chromatographic logP [1, 2] of the same compound?
A: 3.94

Q: For CC1(OCc2ccccc2)c2ccccc2N(c2cnc3ccccc3c2)S(=O)(=O)C1(C)C (centres unmarked) [I.250, 4-(benzyloxy)-3,3,4-trimethyl-1-(quinolin-3-yl)-3,4-dihydro-1H-2,1-benzothiazine 2,2-dioxide], which inhibition of growth at 20 ppm (Leptnosphaeria nodorum) is on record?
A: 90 to 100%

Q: And the inhibition of growth at 20 ppm (Pyricularia oryzae)?
A: 80 to 89%

Q: And the chromatographic logP ([1]; Method C: 55° C.)?
A: 4.04

Q: With FC(F)(F)c1cccc2cc(I)cnc12 [II.01A] as the compound, how does the chromatographic logP ([1]; Method A: 40° C.) read?
A: 3.11

Q: For Fc1c(Cl)ccc2cc(I)cnc12 [II.02A], which chromatographic logP ([1]; Method A: 40° C.) is on record?
A: 3.37

Q: With Cc1ccc2cc(I)cnc2c1F [II.03A] as the compound, how does the chromatographic logP ([1]; Method A: 40° C.) read?
A: 3.11

Q: Which chromatographic logP ([1]; Method A: 40° C.) does the source give for N#Cc1ccc2ncc(I)cc2c1 [II.04A] here?
A: 2.5

Q: With Fc1cc(F)c2ncc(I)cc2c1 [II.05A] as the compound, how does the chromatographic logP ([1]; Method A: 40° C.) read?
A: 2.88

Q: Which chromatographic logP ([1]; Method A: 40° C.) does the source give for Fc1ccc(F)c2ncc(I)cc12 [II.06A] here?
A: 2.94

Q: With Clc1ccc2cc(I)cnc2c1Cl [II.07A] as the compound, how does the chromatographic logP ([1]; Method A: 40° C.) read?
A: 3.83

Q: Which chromatographic logP ([1]; Method A: 40° C.) does the source give for Fc1cc2cc(I)cnc2cc1F [II.08A] here?
A: 3.15

Q: With Fc1cc(Cl)cc2cc(I)cnc12 [II.09A] as the compound, how does the chromatographic logP ([1]; Method A: 40° C.) read?
A: 3.15

Q: For Cc1ccc(F)c2ncc(I)cc12 [II.10A], which chromatographic logP ([1]; Method A: 40° C.) is on record?
A: 3.06

Q: For N#Cc1cccc2cc(I)cnc12 [II.11A], which chromatographic logP ([1]; Method A: 40° C.) is on record?
A: 2.54

Q: With Fc1cc(F)c2cc(I)cnc2c1 [II.12A] as the compound, how does the chromatographic logP ([1]; Method A: 40° C.) read?
A: 3.31

Q: With O=S1(=O)Cc2c(F)cccc2N1 [III.01A] as the compound, how does the chromatographic logP ([1]; Method A: 40° C.) read?
A: 1.34

Q: Which chromatographic logP ([1]; Method A: 40° C.) does the source give for O=S1(=O)Cc2c(cccc2C(F)(F)F)N1 [III.02A] here?
A: 1.99

Q: With O=S1(=O)Cc2cc(C(F)(F)F)ccc2N1 [III.03A] as the compound, how does the chromatographic logP ([1]; Method A: 40° C.) read?
A: 1.95

Q: With O=S1(=O)Cc2c(cccc2OC(F)(F)F)N1 [III.04A] as the compound, how does the chromatographic logP ([1]; Method A: 40° C.) read?
A: 2.11

Q: With N#Cc1cccc2c1CS(=O)(=O)N2 [III.05A] as the compound, how does the chromatographic logP ([1]; Method A: 40° C.) read?
A: 1.08

Q: For CC1(C)Cc2ccccc2NS1(=O)=O [III.06A], which chromatographic logP ([1]; Method C: 55° C.) is on record?
A: 1.6

Q: With O=S1(=O)Nc2ccccc2CC12CC2 [III.07A] as the compound, how does the chromatographic logP ([1]; Method C: 55° C.) read?
A: 1.49

Q: With O=S1(=O)CCCc2ccccc2N1 [IIIc.02, 1,3,4,5-tetrahydro-2,1-benzothiazepine 2,2-dioxide] as the compound, how does the chromatographic logP ([1]; Method C: 55° C.) read?
A: 1.2

Q: With O=S1(=O)N(Cc2ccccc2)c2ccccc2CC12CC2 [IV.01A] as the compound, how does the chromatographic logP ([1]; Method C: 55° C.) read?
A: 3.19

Q: Which chromatographic logP ([1]; Method C: 55° C.) does the source give for O=S1(=O)C=CCc2ccccc2N1Cc1ccccc1 [V.01, 1-benzyl-1,5-dihydro-2,1-benzothiazepine 2,2-dioxide] here?
A: 6.01

Q: Which chromatographic logP ([1]; Method C: 55° C.) does the source give for CC(C)(CS(=O)(=O)Nc1cnc2ccccc2c1)c1ccccc1Br [VIIIa.18, 2-(2-bromophenyl)-2-methyl-N-(quinolin-3-yl)propane-1-sulfonamide] here?
A: 2.98

Q: Which chromatographic logP ([1]; Method C: 55° C.) does the source give for COC(=O)c1ccccc1N(c1cnc2ccccc2c1)S(C)(=O)=O [Xa.02, methyl 2-[(methylsulfonyl)(quinolin-3-yl)amino]benzoate] here?
A: 2.17

Q: Which chromatographic logP ([1]; Method C: 55° C.) does the source give for COC(=O)c1ccccc1Nc1cnc2ccccc2c1 [methyl 2-(quinolin-3-ylamino)benzoate] here?
A: 2.96
